How the values were obtained:
Assay in all cases: Inhibition of tumor cell proliferation (CTG, 6 days)
Format in all cases: cell-based, human
NCI-H1650 cells = conditions: FIG. 7
Protocol: (§1) All the cells were those with high expression of Trop2 antigens. Trodelvy was the tradename of sacituzumab govitecan injector. Sacituzumab was an outsourced anti-Trop2 antibody. All cell lines were cultured in the complete medium at 37° C. with 5% CO2. Cells in the logarithmic growth phase were harvested and then counted using a […], and the cell viability was tested by the trypan blue rejection method to ensure that the cell viability was above 90%. […] The cells in the 96-well plate were cultured at 37° C. with 5% CO2. […] The cells from the dosed 96-well plate were cultured at 37° C. with 5% CO2 for another 6 days, followed by CTG analysis (CTG, a CellTiter-Glo kit, was a homogeneous cell viability assay for quantifying ATP to determine the viability of cultured cells). The CTG reagent was thawed, and the cell plate was equilibrated to room temperature for 30 min. 100 μL of CTG solution was added per well. The cells were shaken on an orbital shaker for 5 min for lysis. The cell plate was treated at room temperature for 20 min to stabilize the cold light signal. The cold light values were read to collect data. […] [formula]

NCI-H596 cells = conditions: FIG. 8
Protocol: as §1

MDA-MB-468 cells = conditions: FIG. 5
Protocol: as §1

SNU216 cells = conditions: FIG. 6
Protocol: as §1

Q: Which results are given for Trodelvy?
A: efficacy (in words) (NCI-H1650 cells): superior to Sacituzumab; efficacy (in words) (NCI-H596 cells): certain efficacy; efficacy (in words) (MDA-MB-468 cells): superior to Sacituzumab; efficacy (in words) (SNU216 cells): superior to Sacituzumab

From patent publication US20240350650A1, “LINKER AND CONJUGATE THEREFOR” (BEIJING HOPE PHARMACEUTICAL CO.LTD., priority 2021, published 2024)
